{
  "source": "patent US20060251714A1",
  "about": "“Pharmaceutical formulations of amyloid inhibiting compounds” (priority 2005, published 2006)",
  "key": {"[1]": {"system": "CSF Aβ42", "experiment": "Example 11: additional tests, CSF Aβ42 level and Aβ42/Aβ40 ratio in treated patients", "format": "in vivo, human", "procedure": "FIG. 1 Change from Baseline CSF Aβ42 versus 3-APS doses\nFIG. 2 Effect of 3-APS on CSF Aβ42/40 Ratio in Mild-to-Moderate AD Patients—Placebo vs. 150 mg BID\nFIG. 3 Effect of 3-APS on CSF Aβ42/40 Ratio in Mild-to-Moderate AD Patients 0 and 50 mg 3-APS\nFIG. 4 Effect of 3-APS on CSF Aβ42/40 Ratio in Mild-to-Moderate AD Patients 100 and 150 mg 3-APS"}, "[2]": {"experiment": "Example 12: 3-APS concentration in cerebrospinal fluid of CAA patients", "format": "in vivo", "settings": "human, oral, 5 hours post-dose on Week 12, range of means, CSF samples from five patients, some below lower limit of quantitation, read-out: mean concentrations of 3-APS in the cerebrospinal fluid (CSF)", "procedure": "(§1) A total of 24 patients who have had lobar cerebral hemorrhage are randomized to receive in a 1:1:1 ratio 3-APS 50, 100 or 150 mg BID for 12 weeks. A lumbar puncture is performed on an optional basis at Weeks 0 and 12 to assess the pharmacological effect of 3-APS on Aβ40, Aβ42 and tau concentrations in cerebrospinal fluid (CSF) and to measure the drug concentration in the CSF. Rating instruments (NIHSS, Barthel Index, ADAS-cog and EXIT25) are administered at Weeks 0 and 12 to evaluate the neurological and cognitive functions as well as the daily functioning.\n(§2) For pharmacokinetic investigations, blood samples are collected from each patient prior to dosing and at specified time points through 12 h post-dose after the first dose (Week 0) and the last dose (Week 12). Blood samples are also collected prior to the first dose of the day during Week 2, 4 and 8 visits. CSF samples are obtained by lumbar puncture prior to dosing on Week 0 and approximately 5 hours post-dose on Week 12.\nThe mean concentrations of 3-APS in the cerebrospinal fluid (CSF) 5 hours post-dose on Week 12 range from 3.28 to 4.10 ng/mL confirming that the central nervous system is exposed to the drug."}, "[3]": {"settings": "dog, in vivo", "procedure": "Furthermore, the non-hygroscopic nature of the acid form makes it desirable as active pharmaceutical ingredient. To further protect against any possible gastrointestinal intolerance that could result from the acid form, the tablets are enteric-coated and a modified-release agent is added to control any rapid release of the drug in the stomach and the intestine, respectively."}, "[4]": {"experiment": "Example 9 Part I: single oral doses of NC-758-1 in healthy elderly volunteers, plasma pharmacokinetics", "format": "in vivo, human", "settings": "elderly male and female subjects, fasted; for AUC∞: mean, only subjects with estimable elimination rate constant", "source_text": "(§3) In the following examples and elsewhere herein, terms are as defined below. The pharmacokinetic parameters were derived by non-compartmental analysis using WinNonlin® (Pharsight Corporation, Mountain View, Calif.) or SAS® for Windows® (SAS Institute Inc., Cary, N.C.).\nPart I—The pharmacokinetic profile and the effect of food on single oral doses of 3-APS free acid (modified-release enteric-coated tablet as described in Table 5 above, hereinafter “NC-758-1”) in healthy male and female elderly (≧55 years) volunteers. For doses at multiples of 50 mg, multiple 50 mg tables are administered. The test is an open label, three-period crossover study to assess the pharmacokinetic profile of 3 single oral doses of NC-758-1 in healthy elderly (≧55 years) male and female subjects. The blood samples are collected during 24 h following dosing. Plasma concentrations of 3-APS are determined using a validated LC-MS/MS method."}, "[5]": {"experiment": "Example 13: single 150 mg dose of Modified-Release Coated Tablets in healthy elderly male volunteers, plasma pharmacokinetics", "format": "in vivo", "settings": "human, single oral 150 mg (3 × 50 mg Table 5 tablets), elderly male subjects; for AUC(0-inf) / Cmax / AUC(0-t): male, po, 150 mg; for AUC(0-t): read-out: AUC0-Tlast", "procedure": "as §3\nFor the 150 mg dose, three 50 mg tables are administered."}, "[6]": {"experiment": "Example 12: Phase II pilot study in CAA patients with lobar cerebral hemorrhage, plasma pharmacokinetics", "format": "in vivo, human", "settings": "for AUC(0-inf) / Cmax / AUC(0-t): human, plasma, oral; for AUC(0-inf): mean, only patients with estimable elimination rate constant", "source_text": "as §3\nAUCss—the area under the plasma concentrations versus time curve during a dosing interval at steady state.\nA Phase II pilot study of the safety, tolerability and pharmacokinetics of 3-APS (formulation of Table 5 above) in patients with lobar cerebral hemorrhage related to Cerebral Amyloid Angiopathy (CAA). For doses at multiples of 50 mg, multiple 50 mg tables are administered. A multicenter, randomized, double-blind, and parallel designed study is conducted in the United States with 3-APS in patients who survived a lobar cerebral hemorrhage related to cerebral amyloid angiopathy (CAA). The main objective of this study is to assess the safety and tolerability of 3-APS and to characterize its pharmacokinetics in CAA patients.\nas §1, §2"}, "[7]": {"settings": "single oral 50 mg NC-758-1 (Table 5 tablet), n = 9, mean"}, "[8]": {"settings": "single oral 100 mg NC-758-1 (Table 5 tablet), n = 9, mean"}, "[9]": {"settings": "single oral 150 mg NC-758-1 (Table 5 tablet), n = 8, mean"}, "[10]": {"settings": "Fasting Conditions, n = 11, mean"}},
  "data": [
    {"smiles": "NCCCS(=O)(=O)O", "note": "[3-APS, 3-amino-1-propanesulfonic acid]", "values": [
      {"measurement": "CSF Aβ42 levels", "setting": "[1]; treated AD patients, FIG. 1", "value": "reduced CSF Aβ42 levels"},
      {"measurement": "ratio of Aβ42/Aβ40 (CSF)", "setting": "[1]; treated mild-to-moderate AD patients, FIGS. 2, 3 and 4", "value": "reduced the ratio of Aβ42/Aβ40"},
      {"measurement": "concentration at 5 h", "setting": "[2]", "value": "3.28 to 4.1", "unit": "ng/mL"},
      {"measurement": "tolerability", "setting": "[3]", "value": "better tolerated than the sodium salt form"},
      {"measurement": "AUC∞", "setting": "[4]; single oral 50 mg NC-758-1 (Table 5 tablet)", "value": 1566, "unit": "ng·h/mL"},
      {"measurement": "AUC(0-t)", "setting": "[4]; [7]", "value": 1537, "unit": "ng·h/mL"},
      {"measurement": "Cmax", "setting": "[4]; [7]", "value": 469, "unit": "ng/mL"},
      {"measurement": "AUC∞", "setting": "[4]; single oral 100 mg NC-758-1 (Table 5 tablet)", "value": 2871, "unit": "ng·h/mL"},
      {"measurement": "AUC(0-t)", "setting": "[4]; [8]", "value": 3128, "unit": "ng·h/mL"},
      {"measurement": "Cmax", "setting": "[4]; [8]", "value": 745, "unit": "ng/mL"},
      {"measurement": "AUC∞", "setting": "[4]; single oral 150 mg NC-758-1 (Table 5 tablet)", "value": 4497, "unit": "ng·h/mL"},
      {"measurement": "AUC(0-t)", "setting": "[4]; [9]", "value": 5303, "unit": "ng·h/mL"},
      {"measurement": "Cmax", "setting": "[4]; [9]", "value": 1029, "unit": "ng/mL"},
      {"measurement": "Tmax", "setting": "[5]; Fed Conditions, n = 10, median", "value": 5.5, "unit": "h"},
      {"measurement": "AUC(0-inf)", "setting": "[5]; [10]", "value": 3280, "unit": "ng·h/mL"},
      {"measurement": "Cmax", "setting": "[5]; [10]", "value": 772, "unit": "ng/mL"},
      {"measurement": "AUC(0-t)", "setting": "[5]; [10]", "value": 3210, "unit": "ng·h/mL"},
      {"measurement": "AUC(0-inf)", "setting": "[5]; Fed Conditions, n = 10, mean", "value": 5310, "unit": "ng·h/mL"},
      {"measurement": "Cmax", "setting": "[5]; Fed Conditions, n = 10, mean", "value": 980, "unit": "ng/mL"},
      {"measurement": "AUC(0-t)", "setting": "[5]; Fed Conditions, n = 10, mean", "value": 5160, "unit": "ng·h/mL"},
      {"measurement": "Tmax", "setting": "[6]; 50 mg BID (Table 5 tablet), Week 0 (single dose), n = 8, median", "value": 4.5, "unit": "h"},
      {"measurement": "Tmax", "setting": "[6]; 50 mg BID (Table 5 tablet), Week 12 (repeated), n = 8, median", "value": 4.4, "unit": "h"},
      {"measurement": "Tmax", "setting": "[6]; 100 mg BID (Table 5 tablet), Week 12 (repeated), n = 6, median", "value": 5.15, "unit": "h"},
      {"measurement": "Tmax", "setting": "[6]; 150 mg BID (Table 5 tablet), Week 12 (repeated), n = 3, median", "value": 5.4, "unit": "h"},
      {"measurement": "AUC(0-inf)", "setting": "[6]; 50 mg BID (Table 5 tablet), Week 0 (single dose)", "value": 1640, "unit": "ng·h/mL"},
      {"measurement": "Cmax", "setting": "[6]; 50 mg, 50 mg BID (Table 5 tablet), Week 0 (single dose), n = 8, mean", "value": 346, "unit": "ng/mL"},
      {"measurement": "AUC(0-t)", "setting": "[6]; 50 mg, 50 mg BID (Table 5 tablet), Week 0 (single dose), n = 8, mean, read-out: AUC0-t", "value": 1280, "unit": "ng·h/mL"},
      {"measurement": "Cmax", "setting": "[6]; 50 mg, 50 mg BID (Table 5 tablet), Week 12 (repeated), n = 8, mean", "value": 171, "unit": "ng/mL"},
      {"measurement": "AUC(0-t)", "setting": "[6]; 50 mg, 50 mg BID (Table 5 tablet), Week 12 (repeated), n = 8, mean, read-out: AUC0-t (AUCss for Week 12)", "value": 947, "unit": "ng·h/mL"},
      {"measurement": "AUC(0-inf)", "setting": "[6]; 100 mg BID (Table 5 tablet), Week 0 (single dose)", "value": 2780, "unit": "ng·h/mL"},
      {"measurement": "Cmax", "setting": "[6]; 100 mg, 100 mg BID (Table 5 tablet), Week 0 (single dose), n = 7, mean", "value": 552, "unit": "ng/mL"},
      {"measurement": "AUC(0-t)", "setting": "[6]; 100 mg, 100 mg BID (Table 5 tablet), Week 0 (single dose), n = 7, mean, read-out: AUC0-t", "value": 2630, "unit": "ng·h/mL"},
      {"measurement": "Cmax", "setting": "[6]; 100 mg, 100 mg BID (Table 5 tablet), Week 12 (repeated), n = 6, mean", "value": 806, "unit": "ng/mL"},
      {"measurement": "AUC(0-t)", "setting": "[6]; 100 mg, 100 mg BID (Table 5 tablet), Week 12 (repeated), n = 6, mean, read-out: AUC0-t (AUCss for Week 12)", "value": 3700, "unit": "ng·h/mL"},
      {"measurement": "AUC(0-inf)", "setting": "[6]; 150 mg BID (Table 5 tablet), Week 0 (single dose)", "value": 3690, "unit": "ng·h/mL"},
      {"measurement": "Cmax", "setting": "[6]; 150 mg, 150 mg BID (Table 5 tablet), Week 0 (single dose), n = 5, mean", "value": 857, "unit": "ng/mL"},
      {"measurement": "AUC(0-t)", "setting": "[6]; 150 mg, 150 mg BID (Table 5 tablet), Week 0 (single dose), n = 5, mean, read-out: AUC0-t", "value": 3900, "unit": "ng·h/mL"},
      {"measurement": "Cmax", "setting": "[6]; 150 mg, 150 mg BID (Table 5 tablet), Week 12 (repeated), n = 3, mean", "value": 1030, "unit": "ng/mL"},
      {"measurement": "AUC(0-t)", "setting": "[6]; 150 mg, 150 mg BID (Table 5 tablet), Week 12 (repeated), n = 3, mean, read-out: AUC0-t (AUCss for Week 12)", "value": 6750, "unit": "ng·h/mL"}
    ]}
  ]
}
